In publication PMC10581251, “Antisense inhibition of RNA polymerase α subunit of Clostridioides difficile” (Microbiology Spectrum, 2023):
In brackets after ≈: the same amount, converted by molar mass. Like-named read-outs stand apart in the source and are kept apart here.

Tests used:
[1] = tested on: Lactobacillus brevis ATCC 14869; assay: MIC gut microflora, Lactobacillus brevis; assay type: cell-based; details: broth microdilution, MRS broth, 48 hours, read-out: MIC
Method: (§1) The susceptibility of gut microflora strains to the rpoA-TAT conjugate was determined using the broth microdilution assay, as described above. Briefly, bacterial suspensions of Bifidobacterium sp. and Bacteroides sp., in supplemented BHIS broth, and Lactobacilli strains, in MRS broth, were added to ultra-low adhesion 96-well plates and serially diluted. The MIC was recorded after 48 hours.

C. difficile ATCC 630 [2] = assay: Effect of pH on MIC/MBC, C. difficile ATCC 630; assay type: cell-based, Clostridioides difficile; details: for MBC: read-out: MBC; for MIC: read-out: MIC
Method: (§2) The susceptibility of C. difficile isolates to the CPP-PNA conjugates or to the CPP alone was determined in vitro as described before with slight modifications ([43] [–] [45]). Briefly, the CPP-PNA conjugates, the CPP alone, and the antibiotics vancomycin and fidaxomicin were added in triplicate to the first row of ultra-low adhesion 96-well plates (Corning Inc., Corning, NY). A suspension of C. difficile equivalent to 0.5 McFarland solution was added to Mueller-Hilton II broth, which was then added to the ultra-low adhesion plate and then serially diluted. The plates were incubated anaerobically for 48 hours at 37°C. The minimum inhibitory concentration was defined as the lowest concentration of the CPP-PNA conjugate that could inhibit bacterial growth when observed visually.
(§3) The MIC and MBC experiments were repeated twice.
(§4) The susceptibility of C. difficile (ATCC 630 and ATCC BAA 1870) to the rpoA-TAT conjugate was evaluated over a pH range of 6 to 9 using the broth microdilution method ([43], [46] [–] [48]). The desired pH for susceptibility testing was attained by the addition of either 0.1 N HCL or 1 N NaOH to the media. The experiment was repeated twice.

[3] = tested on: C. difficile ATCC BAA 1870; assay: MIC/MBC broth microdilution, C. difficile ATCC BAA 1870; assay type: cell-based, Clostridioides difficile; details: for MIC: broth microdilution, anaerobic 48 hours 37°C, visual, read-out: MIC; for MBC: plated on BHIS agar, read-out: MBC
Method: as §2, §3

C. difficile ATCC 630 [4] = assay: microbe, parasite or virus in culture
Method: as §2, §3

C. difficile 630 [5] = assay: Effect of high bacterial inoculum on activity; assay type: cell-based, Clostridioides difficile; details: 8 hours; for Log reduction: vs no treatment
Method: The in vitro efficacy of the PNA constructs against a high inoculum size of C. difficile 630 was determined. Briefly, the PNA constructs and control antibiotics, at a concentration of 1× MIC, were added in triplicate to low adhesion microcentrifuge tubes (Corning Inc., Corning, NY). A high inoculum of C. difficile suspension equivalent to ~5 × 10^6 and ~5 × 10^7 cells was added to the tubes, which were incubated anaerobically at 37°C. The number of viable bacteria in each treatment group was determined by serial dilution and plating on BHIS agar plates at 8 hours and 24 hours post-incubation, respectively. The effect of a high inoculum on the activity of the PNA construct was repeated twice.

[6] = tested on: Bifidobacterium longum subsp. longum HM 846; assay: MIC gut microflora, Bifidobacterium longum; assay type: cell-based
Method: as §1

[7] = tested on: C. difficile ATCC BAA 1870; assay: Effect of pH on MIC/MBC, C. difficile ATCC BAA 1870; assay type: cell-based, Clostridioides difficile; details: for MBC: read-out: MBC; for MIC: read-out: MIC
Method: as §2, §3, §4

[8] = tested on: Lactobacillus gasseri ATCC 19992; assay: MIC gut microflora, Lactobacillus gasseri; assay type: cell-based; details: broth microdilution, MRS broth, 48 hours, read-out: MIC
Method: as §1

[9] = tested on: Bacteroides fragilis HM 714; assay: MIC gut microflora, Bacteroides fragilis; assay type: cell-based; details: broth microdilution, supplemented BHIS broth, 48 hours, read-out: MIC
Method: as §1

C. difficile 1079 = assay: MIC/MBC broth microdilution, C. difficile 1079; assay type: cell-based, Clostridioides difficile; details: for MIC: broth microdilution, anaerobic 48 hours 37°C, visual, read-out: MIC; for MBC: plated on BHIS agar, read-out: MBC
Method: as §2, §3

[10] = tested on: Lactobacillus rhamnosus ATCC 53103; assay: MIC gut microflora, Lactobacillus rhamnosus; assay type: cell-based; details: broth microdilution, MRS broth, 48 hours, read-out: MIC
Method: as §1

C. difficile 1082 = assay: MIC/MBC broth microdilution, C. difficile 1082; assay type: cell-based, Clostridioides difficile; details: for MIC: broth microdilution, anaerobic 48 hours 37°C, visual, read-out: MIC; for MBC: plated on BHIS agar, read-out: MBC
Method: as §2, §3

[11] = tested on: toxin A and toxin B production by C. difficile 630; assay: Toxin production inhibition (ELISA); assay type: cell-based, Clostridioides difficile; details: 8 hours, ELISA of supernatant, triplicate
Method: After the incubation period, the bacterial count in each treatment group was determined by serial dilution and plating. Toxin content in the supernatant of each treatment group was determined using an enzyme-linked immunosorbent assay (ELISA, tgcBIOMICS) kit, as per the manufacturer’s protocol.

C. difficile 630 [12] = assay: Killing kinetics (time-kill assay); assay type: cell-based, Clostridioides difficile; details: 1× MIC, inoculum ~5 × 10^5 CFU/mL, triplicate
Method: The killing kinetics of the PNA construct was determined as described previously ([45] [–] [47]). Briefly, an overnight culture of C. difficile 630 was diluted 1:50 into fresh Mueller Hilton II broth (~10^5 CFU/mL) and added in triplicate to low adhesion microcentrifuge tubes containing either sterile water, the rpoA-TAT construct (1× MIC), or the positive controls vancomycin or fidaxomicin (1× MIC). The number of viable bacteria in each treatment group was determined by taking aliquots at 0, 4, 8, 12, 16, and 24 hours; these aliquots were then serially diluted and plated on BHIS agar plates. The plates were incubated anaerobically, and the number of colony-forming units for each treatment group was recorded the following day. The experiment was repeated twice.

[13] = Clostridioides difficile, ATCC630, pH 6
[14] = Clostridioides difficile, ATCC630, pH 7
[15] = Clostridioides difficile, ATCC630, pH 8
[16] = Clostridioides difficile, BAA1870
[17] = broth microdilution, supplemented BHIS broth, 48 hours
[18] = Clostridioides difficile, BAA1870, pH 6
[19] = Clostridioides difficile, BAA1870, pH 7
[20] = Clostridioides difficile, BAA1870, pH 8

CCc1c(Cl)c(O)c(Cl)c(O)c1C(=O)O[C@H]1[C@H](O)[C@H](OC)[C@H](OC/C2=C\C=C\C[C@H](O)/C(C)=C/[C@H](CC)[C@@H](O[C@@H]3OC(C)(C)[C@@H](OC(=O)C(C)C)[C@H](O)[C@@H]3O)/C(C)=C/C(C)=C/C[C@@H]([C@@H](C)O)OC2=O)O[C@@H]1C [Fidaxomicin, fidaxomicin]
MIC ([1]; Levilactobacillus brevis, ATCC14869): > 2 µM | MBC (C. difficile ATCC 630 [2]; [13]): 1 µM (≈ 1.06 µg/mL) | MIC (C. difficile ATCC 630 [2]; [13]): 0.5 µM (≈ 0.529 µg/mL) | MBC (C. difficile ATCC 630 [2]; [14]): 1 µM (≈ 1.06 µg/mL) | MIC (C. difficile ATCC 630 [2]; [14]): 0.5 µM (≈ 0.529 µg/mL) | MBC (C. difficile ATCC 630 [2]; [15]): 4 µM (≈ 4.23 µg/mL) | MIC (C. difficile ATCC 630 [2]; [15]): 1 µM (≈ 1.06 µg/mL) | MIC [3, 16]: 1 µM (≈ 1.06 µg/mL) | MBC [3, 16]: 1 µM (≈ 1.06 µg/mL) | MBC (C. difficile ATCC 630 [4]; Clostridioides difficile, ATCC630): 0.5 µM (≈ 0.529 µg/mL) | MIC (C. difficile ATCC 630 [4]; Clostridioides difficile, ATCC630, 48 h): 0.5 µM (≈ 0.529 µg/mL) | Log CFU (C. difficile 630 [5]; inoculum 5 × 10^6, 1× MIC): 0 | Log reduction (C. difficile 630 [5]; inoculum 5 × 10^6, 1× MIC): 6.37 | Log CFU (C. difficile 630 [5]; inoculum 5 × 10^7, 1× MIC): 0 | Log reduction (C. difficile 630 [5]; inoculum 5 × 10^7, 1× MIC): 7.77 | MIC ([6]; Bifidobacterium longum, 48 h): 0.125 µM (≈ 0.132 µg/mL) | MIC [6, 17]: 0.125 µM (≈ 0.132 µg/mL) | MBC [7, 18]: 2 µM (≈ 2.12 µg/mL) | MIC [7, 18]: 1 µM (≈ 1.06 µg/mL) | MBC [7, 19]: 2 µM (≈ 2.12 µg/mL) | MIC [7, 19]: 1 µM (≈ 1.06 µg/mL) | MBC [7, 20]: 4 µM (≈ 4.23 µg/mL) | MIC [7, 20]: 1 µM (≈ 1.06 µg/mL) | MIC ([8]; Lactobacillus gasseri, ATCC19992): > 2 µM | MIC ([9]; Bacteroides fragilis, HM714): > 2 µM | MIC (C. difficile 1079; Clostridioides difficile, 1079): 2 µM (≈ 2.12 µg/mL) | MBC (C. difficile 1079; Clostridioides difficile, 1079): 2 µM (≈ 2.12 µg/mL) | MIC ([10]; Lacticaseibacillus rhamnosus, ATCC53103): > 2 µM | MIC (C. difficile 1082; Clostridioides difficile, 1082): 2 µM (≈ 2.12 µg/mL) | MBC (C. difficile 1082; Clostridioides difficile, 1082): 2 µM (≈ 2.12 µg/mL) | reduction of C. difficile toxin production ([11]; 0.125× MIC): 45.7% | reduction of C. difficile toxin production ([11]; 0.25× MIC): 50.6% | reduction of C. difficile toxin production ([11]; 0.5× MIC): 54% | time to eradication of bacteria (below the limit of detection, 250 CFU/mL) (C. difficile 630 [12]): ≤ 12 h

GRKKKRRQRRRYK-O-CATGGACAAAAC-NH2 [rpoA-TAT, PNA oligomer antisense to C. difficile rpoA covalently conjugated to the TAT cell penetrating peptide]
MIC [1]: >32 µM | MBC (C. difficile ATCC 630 [2]; pH 6): 8 µM | MIC (C. difficile ATCC 630 [2]; pH 6): 8 µM | MBC (C. difficile ATCC 630 [2]; pH 7): 8 µM | MIC (C. difficile ATCC 630 [2]; pH 7): 8 µM | MBC (C. difficile ATCC 630 [2]; pH 8): 8 µM | MIC (C. difficile ATCC 630 [2]; pH 8): 8 µM | MIC [3]: 8 µM | MBC [3]: 8 µM | MBC (C. difficile ATCC 630 [4]; aliquots of wells without growth plated on BHIS agar, repeated twice): 8 µM | MIC (C. difficile ATCC 630 [4]; broth microdilution, Mueller-Hilton II broth, anaerobic 48 hours 37°C, visual, triplicate, repeated twice): 8 µM | Log CFU (C. difficile 630 [5]; inoculum 5 × 10^6, 1× MIC): 0 | Log reduction (C. difficile 630 [5]; inoculum 5 × 10^6, 1× MIC): 6.37 | Log CFU (C. difficile 630 [5]; inoculum 5 × 10^7, 1× MIC): 0 | Log reduction (C. difficile 630 [5]; inoculum 5 × 10^7, 1× MIC): 7.77 | MIC [6, 17]: >32 µM | MBC ([7]; pH 6): 8 µM | MIC ([7]; pH 6): 8 µM | MBC ([7]; pH 7): 8 µM | MIC ([7]; pH 7): 8 µM | MIC [8]: >32 µM | MIC [9]: >32 µM | MIC (C. difficile 1079): 8 µM | MBC (C. difficile 1079): 8 µM | MIC [10]: >32 µM | MIC (C. difficile 1082): 4 µM | MBC (C. difficile 1082): 4 µM | reduction of C. difficile toxin production ([11]; 0.125× MIC): 34.9% | reduction of C. difficile toxin production ([11]; 0.25× MIC): 54.3% | reduction of C. difficile toxin production ([11]; 0.5× MIC): 55.2% | time to eradication of bacteria (below the limit of detection, 250 CFU/mL) (C. difficile 630 [12]): ≤ 8 h
